Entries after “also recorded” stand apart in the source; their conditions may differ.
Columns and labels:
Interleukin IL-1 R1 = Interleukin IL-1 R1 (Homo sapiens, UniProt P14778); experiment: Eurofins radioligand binding
rat M1 = target: T1, rat M1 (Rattus norvegicus, UniProt P08482); experiment: M1 agonist calcium mobilization assay (rat); format: cell-based
T1 construct: expressed in transfected cells
T1 sequence (P08482 1-460): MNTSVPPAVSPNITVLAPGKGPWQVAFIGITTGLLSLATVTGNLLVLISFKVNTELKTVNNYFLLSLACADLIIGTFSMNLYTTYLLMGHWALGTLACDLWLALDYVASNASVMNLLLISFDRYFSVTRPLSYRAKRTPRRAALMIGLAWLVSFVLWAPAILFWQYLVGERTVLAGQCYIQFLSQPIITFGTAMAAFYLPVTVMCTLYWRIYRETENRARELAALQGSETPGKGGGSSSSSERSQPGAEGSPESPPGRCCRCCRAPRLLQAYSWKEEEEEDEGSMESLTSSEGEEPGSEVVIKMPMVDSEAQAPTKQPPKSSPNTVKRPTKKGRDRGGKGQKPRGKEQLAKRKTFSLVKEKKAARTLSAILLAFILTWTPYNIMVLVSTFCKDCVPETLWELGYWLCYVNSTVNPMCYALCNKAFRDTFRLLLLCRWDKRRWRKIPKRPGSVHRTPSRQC

Sodium Channel, Site 2 = experiment: Eurofins radioligand binding; settings: Site 2, Rat
Bradykinin B1 = Bradykinin B1 (Homo sapiens, UniProt P46663); experiment: Eurofins radioligand binding
Sprague-Dawley rats = experiment: novel object recognition (NOR); format: in vivo, rat
Description: monitored continuously and scored for behavioral manifestations of seizure activity at 5, 15, 30 min, and 1 h. Behavioral manifestations of seizures were scored using a modified Racine scoring system. Briefly, a score of 0 represents no behavior alterations; score 1, immobility, mouth and facial movements, or facial clonus; score 2, head nodding, tail extension; score 3, forelimb clonus, repetitive movements; score 4, rearing and tonic clonic seizure; and score 5, continuous rearing and falling, severe generalized tonic clonic seizure.
Novel Object Recognition Task
Rats were habituated for 10 min for 2 consecutive days in an empty novel object recognition (NOR) arena consisting of dark-colored plexiglass box (40 × 64 × 33 cm3). On day 3 rats were administered vehicle, M1 PAM 3 (1-10 mg/kg, p.o.., 10 mL/kg, n = 13-18), or M 1 PAM 5 (0.3-3 mg/kg, p.o.., 10 mL/kg, n = 16-18) and returned to their home cage for 60 min (M 1 PAM 5) or 2 hr (M1 PAM 3. Rats were then placed in the NOR arena containing two identical objects for 10 min. Following the exposure period, rats were placed back into their home cages for 24 h. The rats were then returned to the arena in which one of the previously exposed (familiar) objects was replaced by a novel object and were video recorded for 5 min while they explored the two objects.
Time spent exploring each object was scored by an observer blinded to the experimental conditions and the recognition index was calculated as [(time spent exploring novel object) – (time spent exploring familiar object)]/total time exploring objects.

Glutamate, NMDA, Agonism = experiment: Eurofins radioligand binding; settings: Rat
Prostanoid EP4 = Prostanoid EP4 (Homo sapiens, UniProt P35408); experiment: Eurofins radioligand binding
CYP 2C9 = CYP 2C9 (Homo sapiens, UniProt P11712); experiment: CYP450 inhibition; format: in vitro ADME
Transporter, GABA = Transporter, GABA (Rattus norvegicus, UniProt P23978); experiment: Eurofins radioligand binding
Adrenergic α2A = target: T2, Adrenergic α2A (Homo sapiens, UniProt P08913); experiment: Eurofins radioligand binding
T2 construct: purchased Eurofins (contract screen, Study TW04-0011004)

Adenosine A1 = Adenosine A1 (Homo sapiens, UniProt P30542); experiment: Eurofins radioligand binding
Serotonin (5-HT3) = Serotonin (5-HT3) (Homo sapiens, UniProt P46098); experiment: Eurofins radioligand binding
[1] = test system: Calcium Channel L-Type, Benzothiazepine; experiment: Eurofins radioligand binding; settings: Rat
Histamine H2 = Histamine H2 (Homo sapiens, UniProt P25021); experiment: Eurofins radioligand binding
[2] = plasma protein binding, equilibrium dialysis (human); format: in vitro ADME; settings: pH 7.4, read-out: fu,plasma
Description: Plasma protein binding and Brain homogenate binding: Determination of fraction unbound (f u) in plasma was conducted in vitro via equilibrium dialysis using HTDialysis (HTD) membrane plates. The top half of the plate was filled with 100 uL of Dubelco’s Phosphate Buffered Saline, pH 7.4 (DPBS). Compounds were diluted into plasma from each species (5 µM final concentration), which was aliquoted in triplicate to the ‘bottom half’ of the prepared HTD plate wells. The HTD plate was sealed and incubated for 6 hours at 37 °C. Following incubation, each well (both top and bottom halves) were transferred (20 µL) to the corresponding wells of a 96-shallow-well (V-bottom) plate. […]
The unbound fraction (f u) was calculated following the equation below, and mean values for each species were calculated from 3 replicates.
A similar approach was used to determine the degree of brain homogenate binding, which employed the same methodology and procedure with the following modifications: 1) a final compound concentration of 1 μM was used, 2) naïve rat brains were homogenized in DPBS (1:3 composition of brain: DPBS, w/w) using a Mini-Bead Beater™ machine in order to obtain brain homogenate, which was then treated in the same manner as the plasma samples in the previously described plasma protein binding assay. Fraction unbound for both plasma and brain samples was determined using Equation 4. […]

Dopamine D3 = Dopamine D3 (Homo sapiens, UniProt P35462); experiment: Eurofins radioligand binding
GABAB1A = GABAB1A (Homo sapiens, UniProt Q9UBS5); experiment: Eurofins radioligand binding
GABAB1A, sequence (Q9UBS5 15-961 limits assumed): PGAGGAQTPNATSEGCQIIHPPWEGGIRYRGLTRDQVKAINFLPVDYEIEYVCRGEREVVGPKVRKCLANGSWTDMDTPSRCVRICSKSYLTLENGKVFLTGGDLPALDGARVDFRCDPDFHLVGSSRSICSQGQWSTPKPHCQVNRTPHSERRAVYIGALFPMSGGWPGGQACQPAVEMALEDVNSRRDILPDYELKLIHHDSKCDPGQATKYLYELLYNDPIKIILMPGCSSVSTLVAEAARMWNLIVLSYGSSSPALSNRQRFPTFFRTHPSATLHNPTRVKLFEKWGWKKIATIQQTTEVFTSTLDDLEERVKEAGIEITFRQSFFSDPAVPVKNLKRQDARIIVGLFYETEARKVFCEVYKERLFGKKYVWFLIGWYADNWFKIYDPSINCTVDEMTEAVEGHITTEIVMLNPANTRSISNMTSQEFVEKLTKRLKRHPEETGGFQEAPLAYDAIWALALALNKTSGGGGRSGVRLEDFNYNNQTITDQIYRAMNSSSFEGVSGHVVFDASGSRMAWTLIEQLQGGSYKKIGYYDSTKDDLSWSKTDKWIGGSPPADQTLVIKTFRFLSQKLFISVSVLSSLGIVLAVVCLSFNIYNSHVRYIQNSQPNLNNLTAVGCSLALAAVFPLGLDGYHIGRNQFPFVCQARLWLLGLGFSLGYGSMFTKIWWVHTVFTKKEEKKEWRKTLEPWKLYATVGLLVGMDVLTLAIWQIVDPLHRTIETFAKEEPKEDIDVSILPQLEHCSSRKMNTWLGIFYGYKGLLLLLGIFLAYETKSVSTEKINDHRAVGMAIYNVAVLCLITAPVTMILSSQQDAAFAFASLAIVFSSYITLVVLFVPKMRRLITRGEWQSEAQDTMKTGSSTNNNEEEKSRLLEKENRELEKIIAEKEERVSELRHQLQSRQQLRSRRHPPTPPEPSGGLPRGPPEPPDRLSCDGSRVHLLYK
GABAB1A, sequence (O75899 42-941 partner): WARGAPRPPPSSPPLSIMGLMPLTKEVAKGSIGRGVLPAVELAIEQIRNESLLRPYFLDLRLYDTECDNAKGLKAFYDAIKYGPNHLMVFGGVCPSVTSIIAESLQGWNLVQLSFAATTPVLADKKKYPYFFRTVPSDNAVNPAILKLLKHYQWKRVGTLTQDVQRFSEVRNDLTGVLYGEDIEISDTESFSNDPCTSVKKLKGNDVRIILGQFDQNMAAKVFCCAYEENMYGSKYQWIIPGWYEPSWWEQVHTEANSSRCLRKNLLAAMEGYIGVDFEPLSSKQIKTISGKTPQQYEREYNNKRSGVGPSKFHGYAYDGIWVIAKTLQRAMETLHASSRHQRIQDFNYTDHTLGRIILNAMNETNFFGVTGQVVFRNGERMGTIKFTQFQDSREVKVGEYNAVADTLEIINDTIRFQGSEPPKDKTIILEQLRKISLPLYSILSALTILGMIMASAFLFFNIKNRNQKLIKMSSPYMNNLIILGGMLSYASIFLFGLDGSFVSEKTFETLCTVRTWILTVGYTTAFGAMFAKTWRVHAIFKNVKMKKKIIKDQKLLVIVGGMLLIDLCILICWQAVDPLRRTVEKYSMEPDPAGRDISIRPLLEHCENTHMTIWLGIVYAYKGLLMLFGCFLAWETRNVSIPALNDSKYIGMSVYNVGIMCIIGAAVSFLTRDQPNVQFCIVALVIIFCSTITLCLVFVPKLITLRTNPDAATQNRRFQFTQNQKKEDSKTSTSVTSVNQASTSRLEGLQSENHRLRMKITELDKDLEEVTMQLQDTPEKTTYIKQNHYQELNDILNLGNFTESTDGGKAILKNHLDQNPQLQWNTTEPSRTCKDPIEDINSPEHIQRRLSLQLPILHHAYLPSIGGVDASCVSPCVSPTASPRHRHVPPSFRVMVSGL

T2 sequence (P08913 whole entry): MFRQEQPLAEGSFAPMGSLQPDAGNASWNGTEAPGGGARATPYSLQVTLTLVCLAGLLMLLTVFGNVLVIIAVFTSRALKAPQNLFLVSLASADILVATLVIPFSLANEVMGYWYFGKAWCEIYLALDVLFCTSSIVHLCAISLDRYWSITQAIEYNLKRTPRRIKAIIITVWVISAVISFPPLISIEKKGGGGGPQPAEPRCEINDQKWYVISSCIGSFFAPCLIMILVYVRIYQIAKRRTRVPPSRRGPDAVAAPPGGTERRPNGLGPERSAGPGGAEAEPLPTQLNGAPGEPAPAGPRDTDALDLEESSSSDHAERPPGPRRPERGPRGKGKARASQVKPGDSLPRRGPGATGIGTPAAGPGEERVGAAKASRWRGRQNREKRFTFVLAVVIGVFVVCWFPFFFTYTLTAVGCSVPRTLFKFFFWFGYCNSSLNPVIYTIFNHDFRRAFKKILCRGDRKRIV
Histamine H2, sequence (P25021 whole entry): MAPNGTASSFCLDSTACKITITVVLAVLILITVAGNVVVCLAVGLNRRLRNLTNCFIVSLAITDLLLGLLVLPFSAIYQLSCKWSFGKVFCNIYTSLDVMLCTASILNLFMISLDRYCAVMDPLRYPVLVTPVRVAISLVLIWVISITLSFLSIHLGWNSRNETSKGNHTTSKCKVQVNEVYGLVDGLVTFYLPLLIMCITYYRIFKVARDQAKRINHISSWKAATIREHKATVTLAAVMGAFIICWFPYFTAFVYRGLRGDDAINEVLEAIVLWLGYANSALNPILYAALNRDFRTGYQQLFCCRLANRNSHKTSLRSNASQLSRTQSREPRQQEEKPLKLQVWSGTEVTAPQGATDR
CYP 2C9, sequence (P11712 whole entry): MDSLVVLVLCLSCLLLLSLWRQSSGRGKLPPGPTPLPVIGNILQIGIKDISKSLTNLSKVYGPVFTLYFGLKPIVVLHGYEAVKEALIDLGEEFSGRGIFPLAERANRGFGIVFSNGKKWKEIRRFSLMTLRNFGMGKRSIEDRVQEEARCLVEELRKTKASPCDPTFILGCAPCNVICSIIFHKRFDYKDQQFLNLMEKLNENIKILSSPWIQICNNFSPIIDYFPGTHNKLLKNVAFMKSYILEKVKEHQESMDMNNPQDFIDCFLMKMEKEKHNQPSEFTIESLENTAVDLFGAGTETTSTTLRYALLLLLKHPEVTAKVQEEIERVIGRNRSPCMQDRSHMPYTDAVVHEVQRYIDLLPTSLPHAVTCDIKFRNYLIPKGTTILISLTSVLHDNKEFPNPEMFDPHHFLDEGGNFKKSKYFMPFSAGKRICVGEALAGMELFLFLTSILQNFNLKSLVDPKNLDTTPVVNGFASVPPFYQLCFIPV
Interleukin IL-1 R1, sequence (P14778 18-569): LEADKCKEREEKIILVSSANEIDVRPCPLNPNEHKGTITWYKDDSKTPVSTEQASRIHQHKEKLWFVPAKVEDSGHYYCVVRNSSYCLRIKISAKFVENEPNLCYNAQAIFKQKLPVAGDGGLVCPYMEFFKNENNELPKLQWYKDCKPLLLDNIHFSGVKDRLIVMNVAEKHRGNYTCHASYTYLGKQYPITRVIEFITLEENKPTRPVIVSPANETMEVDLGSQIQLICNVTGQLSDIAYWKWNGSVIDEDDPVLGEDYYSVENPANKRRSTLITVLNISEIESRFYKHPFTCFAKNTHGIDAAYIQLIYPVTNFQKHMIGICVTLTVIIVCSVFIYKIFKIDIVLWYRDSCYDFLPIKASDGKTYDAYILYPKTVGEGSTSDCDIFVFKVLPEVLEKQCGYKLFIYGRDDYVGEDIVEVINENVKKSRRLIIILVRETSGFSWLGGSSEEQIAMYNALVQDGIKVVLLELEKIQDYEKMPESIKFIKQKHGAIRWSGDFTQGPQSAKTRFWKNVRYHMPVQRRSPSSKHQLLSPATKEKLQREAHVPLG
Bradykinin B1, sequence (P46663 whole entry): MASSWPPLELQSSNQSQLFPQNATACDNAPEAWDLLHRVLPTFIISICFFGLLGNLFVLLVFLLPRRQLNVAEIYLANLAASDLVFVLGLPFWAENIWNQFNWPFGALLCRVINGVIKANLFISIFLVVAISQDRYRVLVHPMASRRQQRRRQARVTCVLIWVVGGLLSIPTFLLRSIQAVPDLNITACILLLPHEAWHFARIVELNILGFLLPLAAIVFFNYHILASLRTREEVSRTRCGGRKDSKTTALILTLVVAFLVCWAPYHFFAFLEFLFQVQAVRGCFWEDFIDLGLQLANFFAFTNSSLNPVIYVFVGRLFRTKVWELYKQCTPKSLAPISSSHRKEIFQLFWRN
Adenosine A1, sequence (P30542 whole entry): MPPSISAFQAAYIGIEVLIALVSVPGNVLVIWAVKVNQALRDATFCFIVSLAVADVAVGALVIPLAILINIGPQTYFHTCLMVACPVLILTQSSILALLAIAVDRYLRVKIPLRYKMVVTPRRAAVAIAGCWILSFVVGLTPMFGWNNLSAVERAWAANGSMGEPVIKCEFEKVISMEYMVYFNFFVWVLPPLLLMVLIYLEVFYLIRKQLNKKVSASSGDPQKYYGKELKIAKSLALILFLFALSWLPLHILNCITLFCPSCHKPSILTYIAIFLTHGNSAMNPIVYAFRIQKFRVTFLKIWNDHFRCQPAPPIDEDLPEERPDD

In the case of Cn1cc2c(-c3cc(F)c(CN4Cc5ncccc5C4=O)c(F)c3)ccc(C(C)(C)O)c2n1 [compound 7], the inhibition at 10 µM (Interleukin IL-1 R1) is reported as -10%, the “rM1 Agonist AChmax (%)” value (rat M1; rat M1, % ACh max, n = 5) is reported as 17% and the EC50 (rat M1; rat M1, n = 5, read-out: rM1 Agonist EC50) is reported as over 10 µM. For the same compound, the “% Inhibition at 10 µM” value (Sodium Channel, Site 2) was 22%, the inhibition at 10 µM (Bradykinin B1) was 0% and the “free brain concentration at NOR MED” value (Sprague-Dawley rats; 1 mg/kg PO, rat) was 71 nM. For the same compound, the “effect on recognition index / recognition memory in NOR” value (Sprague-Dawley rats; 0.3 to 3.0 mg/kg PO, result in words) was “dose-dependently increased the recognition index; also recorded: dose-dependently enhanced the recognition memory”, the “minimum effective dose (MED) in rat NOR” value (Sprague-Dawley rats; PO, 10% Tween 80 in water, male Sprague-Dawley rats) was 1 mg/kg and the “margin in terms of dose, NOR MED relative to the seizure assay and the Irwin battery” value (Sprague-Dawley rats; rat, in vivo) was about 50 fold. For the same compound, the “margin in terms of total brain exposure, NOR MED relative to the seizure assay and the Irwin battery” value (Sprague-Dawley rats; rat, in vivo) was 11- to 16 fold, the “% Inhibition at 10 µM” value (Glutamate, NMDA, Agonism) was -3% and the inhibition at 10 µM (Prostanoid EP4) was 21%. For the same compound, the IC50 (CYP 2C9) was over 30 µM, the inhibition at 10 µM (Transporter, GABA) was -12% and the IC50 (Adrenergic α2A) was 3.2 µM. It also gave an inhibition at 10 µM (Adrenergic α2A; Adrenergic α2A, Human) of 75%, an inhibition at 10 µM (Adenosine A1) of -2% and an inhibition at 10 µM (Serotonin (5-HT3)) of -14%. For the same compound, the “% Inhibition at 10 µM” value [1] was 80%, the inhibition at 10 µM (Histamine H2) was 2% and the fraction unbound at 6 h, 5 µM [2] was 0.037. The inhibition at 10 µM (Dopamine D3) was -10% and the inhibition at 10 µM (GABAB1A) was 7%.

Reference: PMC12715762, “Discovery of VU6052254: A Novel, Potent M1 Positive Allosteric Modulator” (ACS Chemical Neuroscience, 2025)
